According to US20160158200A1, “Combinations of Hepatitis C Virus Inhibitors” (priority 2013, published 2016):

System: HCV genotype-1a variant with glutamine 30 changed to glutamate in the NS5A protein
Type: cell-based
Details: test compound titrated with BMS-790052 fixed at 200 nM; genotype 1a Q30E replicon
Outline: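 Synergy was assessed by combining several fixed amounts of an NS5A-targeting compound with a titration of the second compound of interest.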

Row | Compound | Fold-Synergistic 1a (Q30E) [fold]
1 | CC(C)[C@H](NC(=O)Cc1cnccn1)c1ncc(-c2ccc(-c3ccc(-c4cnc([C@@H](NC(=O)Cc5cnccn5)C(C)C)[nH]4)cc3)cc2)[nH]1 [Compound S-60] | <10
2 | CC(C)(C)[C@H](NC(=O)C1CCC(F)(F)CC1)c1ncc(C#Cc2ccc3cc(-c4cnc([C@@H](NC(=O)C5CCC(F)(F)CC5)C(C)(C)C)[nH]4)ccc3c2)[nH]1 [Compound B1] | >100
3 | CC(C)(C)OC(=O)NC1(C(=O)N[C@H](c2nc(-c3ccc(-c4ccc(-c5c[nH]c([C@@H](NC(=O)C6(NC(=O)OC(C)(C)C)CCC6)C(C)(C)C)n5)cc4)cc3)c[nH]2)C(C)(C)C)CCC1.O=C(O)C(F)(F)F.O=C(O)C(F)(F)F [Compound L-5] | >100
4 | CC1(C(=O)NC(c2nc(-c3ccc(-c4ccc(-c5c[nH]c(C(NC(=O)C6(C)CCC(F)(F)CO6)C(C)(C)C)n5)cc4)cc3)c[nH]2)C(C)(C)C)CCC(F)(F)CO1 (single isomer, unassigned) [Compound Y-67B] | >100
5 | CC(C)(C)OC(=O)N1CCC(C(=O)N[C@H](c2nc(-c3ccc(-c4ccc(-c5c[nH]c([C@@H](NC(=O)C6CCN(C(=O)OC(C)(C)C)CC6)C(C)(C)C)n5)cc4)cc3)c[nH]2)C(C)(C)C)CC1 [Compound S-264] | >100
6 | CC(C)(C)[C@H](NC(=O)C1CCOC1)c1nc(-c2ccc(-c3ccc(-c4c[nH]c([C@@H](NC(=O)C5CCOC5)C(C)(C)C)n4)cc3)cc2)c[nH]1 (stereo partly shown) [Compound W-129] | >10
7 | CC(C)[C@H](NC(=O)C(C)(C)C(O)C1CC(F)(F)C1)c1nc(-c2ccc(-c3ccc(-c4c[nH]c([C@@H](NC(=O)C(C)(C)C(O)C5CC(F)(F)C5)C(C)C)n4)cc3)cc2)c[nH]1 (single isomer, unassigned) [Compound N-145A] | >100
8 | CO[C@H](C(=O)N[C@H](c1ncc(-c2ccc(-c3ccc(-c4cnc([C@@H](NC(=O)[C@@H](OC)c5ccccc5)C(C)C)[nH]4)cc3)cc2)[nH]1)C(C)C)c1ccccc1 [Compound P-85] | >100
9 | COc1cccc2c(C(=O)N3[C@@H]4C[C@@H]4C[C@H]3c3ncc(-c4ccc(-c5ccc(-c6cnc([C@@H]7C[C@H]8C[C@H]8N7C(=O)c7nc(Cl)cc8c(OC)cccc78)[nH]6)cc5)cc4)[nH]3)nc(Cl)cc12 [Compound P-49] | >100
10 | CN(C)C(=O)C(=O)N[C@H](c1nc(-c2ccc(-c3ccc(-c4c[nH]c([C@@H](NC(=O)C(=O)N(C)C)C(C)(C)C)n4)cc3)cc2)c[nH]1)C(C)(C)C [Compound W-10] | >100
11 | CC1([C@H](NC(=O)C2CCC(F)(F)CC2)c2nc3ccc(C#Cc4ccc5nc([C@@H](NC(=O)C6CCC(F)(F)CC6)C6(C)CC6)[nH]c5c4)cc3[nH]2)CC1 [Compound B67] | >100
12 | O=C(C(=O)N1CCCC1c1nc(-c2ccc(-c3ccc(-c4c[nH]c([C@@H]5CCCN5C(=O)C(=O)N5CCC(F)(F)CC5)n4)cc3)cc2)c[nH]1)N1CCC(F)(F)CC1 (stereo partly shown) [Compound W-189] | >100
13 | CC(C)[C@H](NC(=O)N1CCCC1)c1ncc(-c2ccc(-c3ccc(-c4cnc([C@@H](NC(=O)N5CCCC5)C(C)C)[nH]4)cc3)cc2)[nH]1 [Compound S-232] | >100
14 | CC(C)(C)[C@H](NC(=O)C1C2CCOC21)c1nc(-c2ccc(-c3ccc(-c4cnc([C@@H](NC(=O)C5C6CCOC65)C(C)(C)C)[nH]4)cc3)cc2)c[nH]1 (single isomer, unassigned) [Compound B-165] | >100
15 | CC(C)[C@H](NC(=O)C1(C(F)(F)F)CC1)c1ncc(-c2ccc(-c3ccc(-c4cnc([C@@H](NC(=O)C5(C(F)(F)F)CC5)C(C)C)[nH]4)cc3)cc2)[nH]1 [Compound P-88] | >100
16 | CC(C)(C)[C@H](NC(=O)C1CC1(F)F)c1nc(-c2ccc(-c3ccc(-c4c[nH]c([C@@H](NC(=O)C5CC5(F)F)C(C)(C)C)n4)cc3)cc2)c[nH]1 (stereo partly shown) [Compound N-45a] | >100
17 | CC1(C)CCCC(C)(C(=O)N[C@H](c2nc(-c3ccc(-c4ccc(-c5c[nH]c([C@@H](NC(=O)C6(C)CCCC(C)(C)O6)C(C)(C)C)n5)cc4)cc3)c[nH]2)C(C)(C)C)O1 (single isomer, unassigned) [Compound W-167] | >100
18 | CC(C)[C@H](NC(=O)c1cc(Cl)ccc1F)c1nc(-c2ccc3c(c2)CCc2cc(-c4c[nH]c([C@@H](NC(=O)c5cc(Cl)ccc5F)C(C)C)n4)ccc2-3)c[nH]1.O=C(O)C(F)(F)F [Compound N-76] | >100
19 | CC1(C(=O)N[C@H](c2nc(-c3ccc(-c4ccc(-c5c[nH]c([C@@H](NC(=O)C6(C)CC(F)(F)CN6)C(C)(C)C)n5)cc4)cc3)c[nH]2)C(C)(C)C)CC(F)(F)CN1 (mixture of isomers) [Compound W-80] | >100
20 | COC(=O)C1(C(=O)N[C@H](c2nc(-c3ccc(-c4ccc(-c5c[nH]c([C@@H](NC(=O)C6(C(=O)OC)CCCCC6)C(C)(C)C)n5)cc4)cc3)c[nH]2)C(C)(C)C)CCCCC1 [Compound S-273] | >100
21 | CC(C)(C)[C@H](NS(=O)(=O)C1(C)CC1)c1nc(-c2ccc(-c3ccc(-c4c[nH]c([C@@H](NS(=O)(=O)C5(C)CC5)C(C)(C)C)n4)cc3)cc2)c[nH]1 [Compound L-120] | >100
22 | CC(C)[C@H](NC(=O)C(C)(C)C)c1ncc(-c2ccc(-c3ccc(-c4cnc([C@@H](NC(=O)C(C)(C)C)C(C)(C)C)[nH]4)cc3)cc2)[nH]1 [Compound Y-41] | >100
23 | CN1CC(F)(F)C[C@H]1C(=O)N[C@H](c1nc(-c2ccc(-c3ccc(-c4c[nH]c([C@@H](NC(=O)[C@@H]5CC(F)(F)CN5C)C(C)(C)C)n4)cc3)cc2)c[nH]1)C(C)(C)C [Compound P-35] | >100
24 | Cc1cc(-c2ccc(-c3c[nH]c([C@@H](NC(=O)C4CC(F)(F)C4)C(C)C)n3)cc2)ccc1-c1c[nH]c([C@@H](NC(=O)C2CC(F)(F)C2)C(C)C)n1.O=C(O)C(F)(F)F [Compound N-78] | >100
25 | CC(C)[C@H](NC(=O)C(C)(C)CF)c1ncc(-c2ccc(-c3ccc(-c4cnc([C@@H](NC(=O)C(C)(C)CF)C(C)C)[nH]4)cc3)cc2)[nH]1 [Compound P-72] | >100
26 | CC(C)[C@H](NC(=O)C(=O)C1(C)CCCO1)c1ncc(-c2ccc(-c3ccc(-c4cnc([C@@H](NC(=O)C(=O)C5(C)CCCO5)C(C)C)[nH]4)cc3)cc2)[nH]1 (stereo partly shown) [Compound P-118] | >100
27 | CC(C)(C)OC(=O)N1CCCC1C(=O)NC(c1nc(-c2ccc(-c3ccc(-c4c[nH]c(C(NC(=O)C5CCCN5C(=O)OC(C)(C)C)C(C)(C)C)n4)cc3)cc2)c[nH]1)C(C)(C)C (stereo not shown) [Compound W-87] | >100
28 | CC1(C)CC(C(=O)N[C@H](c2nc(-c3ccc(-c4ccc(-c5c[nH]c([C@@H](NC(=O)C6CCOC(C)(C)C6)C(C)(C)C)n5)cc4)cc3)c[nH]2)C(C)(C)C)CCO1 (stereo partly shown) [Compound W-122] | >100
